Reference: PMC10791743, “Selective CK1α degraders exert antiproliferative activity against a broad range of human cancer cell lines” (Nature Communications, 2024)

What was measured:
Assay in all cases: cells
Set-up in all cases: Oncolines panel cell viability, ATPlite 1Step luminescence, duplicate 9-point dose response, IC50
[1] = system: A-427; details: Homo sapiens, A-427; 72 h viability; read-out: SJ3149
Method: (§1) Cell viability assays were performed as previously described. In brief, cells were seeded in a 384-well plate at an optimized density. The starting cell number was determined after 24 h incubation by adding ATPlite 1Step (Perkin Elmer, Groningen, the Netherlands) to each well and recording luminescence on an Envision multimode reader (Perkin Elmer, Waltham, MA). After the addition of a duplicate 9-point dilution series of SJ3149, cells were incubated for another 72 h, followed by cell counting using ATPlite 1Step. The dilution series ranged from 3.2 to 31,600 nM or was diluted 100-fold for the most sensitive cell lines to ideally capture the complete dose–response curve. Percentage viability was determined at each compound concentration by relating the observed signal to a vehicle-treated control, that is, medium containing 0.4% (v/v) DMSO. Compound IC50 values were calculated by fitting a 4-parameter logistic curve to the percentage viability values using IDBS XLfit5 (IDBS, Guildford, UK). The IC50 was limited to the maximum tested compound concentration when the IC50 exceeded the maximum tested concentration. […] To evaluate the compound’s effect and potential therapeutic application across a diverse range of human cancers, we profiled SJ3149 in Oncolines® panel consisting of 115 human cancer cell lines, of which 86 were solid tumor and 29 hematologic cell lines, including MOLM-13. Effect on cell viability was monitored using ATPLite™ (Perkin Elmer), which measures intracellular ATP content as an indirect readout of cell number, like CellTiter Glo.

[2] = system: A388; details: 72 h viability; read-out: SJ3149
Method: as §1

[3] = system: AN3 CA; details: Homo sapiens, AN3-CA; 72 h viability; read-out: SJ3149
Method: as §1

[4] = system: CCF-STTG1; details: Homo sapiens, CCF-STTG1; 72 h viability; read-out: SJ3149
Method: as §1

[5] = system: Daoy; details: Homo sapiens, Daoy; 72 h viability; read-out: SJ3149
Method: as §1

[6] = system: HL-60; details: Homo sapiens, HL-60; 72 h viability; read-out: SJ3149
Method: as §1

[7] = system: HT; details: Homo sapiens, HT; 72 h viability; read-out: SJ3149
Method: as §1

[8] = system: Hs 746T; details: Homo sapiens, Hs746T; 72 h viability; read-out: SJ3149
Method: as §1

[9] = system: Hs 766T; details: Hs766T; 72 h viability; read-out: SJ3149
Method: as §1

[10] = system: J82; details: Homo sapiens, J82; 72 h viability; read-out: SJ3149
Method: as §1

[11] = system: MeWo; details: Homo sapiens, MeWo; 72 h viability; read-out: SJ3149
Method: as §1

[12] = system: NCI-H460; details: Homo sapiens, NCI-H460; 72 h viability; read-out: SJ3149
Method: as §1

[13] = system: NCI-H661; details: Homo sapiens, NCI-H661; 72 h viability; read-out: SJ3149
Method: as §1

[14] = system: NCI-H82; details: Homo sapiens, NCI-H82; 72 h viability; read-out: SJ3149
Method: as §1

[15] = system: SJCRH30; details: 72 h viability; read-out: SJ3149
Method: as §1

[16] = system: SUP-T1; details: Homo sapiens, SUP-T1; 72 h viability; read-out: SJ3149
Method: as §1

[17] = system: SW620; details: Homo sapiens, SW-620; 72 h viability; read-out: SJ3149
Method: as §1

[18] = system: SW948; details: Homo sapiens, SW948; 72 h viability; read-out: SJ3149
Method: as §1

[19] = system: TCCSUP; details: Homo sapiens, TCC-SUP; 72 h viability; read-out: SJ3149
Method: as §1

[20] = system: U-118 MG; details: Homo sapiens, U-118-MG; 72 h viability; read-out: SJ3149
Method: as §1

Measured: IC50

O=C1CCC(N2Cc3cc(Nc4noc5ccccc45)ccc3C2=O)C(=O)N1 (centres unmarked) [SJ3149]
> 31.6 µM: all assays above
